Reference: article PMC12814185, “Receptor-Mediated Shuttling of a D‑Amino Acid Peptide Achieves High Nanomolar Cytosolic Concentrations” (Journal of the American Chemical Society, 2025)
Where a SMILES comes first, the peptide text is derived from it. Bridges are numbered along the chain shown (N, C = ends). Roman numbers before positions name the chains, in order. Triazole bridges read from a SMILES are 1,4-linked. Where no end group is shown, it is not given here. Side-chain parts run from the residue outwards. [ ]: non-standard residue; d: D form. The star is where a group is joined. X2 = CN1C(=C/C=C/C=C/C2=[N+](CCCCCC(=O)*)c3ccc(S(=O)(=O)[O-])cc3C2(C)C)C(C)(C)c2cc(S(=O)(=O)O)ccc21; X1 = CN1C(=CC=CC=CC2=[N+](CCCCCC(=O)*)c3ccc(S(=O)(=O)[O-])cc3C2(C)C)C(C)(C)c2cc(S(=O)(=O)O)ccc21; Lys(N3) = [N-]=[N+]=NCCCC[C@H](N)C(=O)O; Cit = NC(=O)NCCC[C@H](N)C(=O)O; d(hCys) = N[C@H](CCS)C(=O)O; PEG3 = NCCOCCOCCOCCC(=O)O; Pra = C#CC[C@H](N)C(=O)O

Columns and labels:
HEK293_CMKLR1-eYFP cells = assay: Fluorescence correlation spectroscopy (FCS) in the cytosol; settings: 72 h; for cytosolic concentration, median (IQR) / cytosolic concentration, mean ± SD: FCS at 22 °C
Experimental: (§1) 3 Quantification of Cy5-labeled peptides in the cytosol. (A) RP-HPLC (λex = 640 nm, λem = 670 nm) of cleavage products of Cy5-labeled peptides in the lysate of HEK293_CMKLR1-eYFP cells after incubation with 1 μM peptide for different durations. […] (B) Representative fluorescence correlation spectroscopy (FCS) autocorrelation curves of Cy5-labeled peptides measured in the cytosol of HEK293_CMKLR1-eYFP cells after 72 h of incubation. Measured curves were fitted with a model for hindered 3D diffusion and diffusion time t D and anomalous coefficient α were calculated from the fit. Autocorrelation data represent mean ± SD of up to 10 consecutive 5 s measurements in a single cell. (C) Intracellular concentrations of Cy5-labeled peptides after 72 h incubation calculated from the fitted autocorrelation curves obtained in HEK293_CMKLR1-eYFP, HMEC-1, and THP-1 cells. Each data point corresponds to FCS measurements from the cytosol of a single cell. Median with the interquartile range is shown. Data from three independent experiments. Statistical comparison by log-normal unpaired t test. ***p ≤ 0.001, **p ≤ 0.01, *p ≤ 0.05, ns – not significant. […] (D) Calculated diffusion coefficients from the fitted autocorrelation curves. Median with the interquartile range is shown. […]
(§2) Fluorescence correlation spectroscopy (FCS)
(§3) Cytosolic delivery was quantified by FCS as has been described previously.3–5 Stably transfected HEK293_CMKLR1-eYFP cells were seeded at 30,000 cells per well and HMEC-1 cells at 10,000 cells per well into poly-ᴅ-lysine-coated 8-well microscopy slides (ibidi) in their respective cell culture medium. THP-1 cells were resuspended in fresh cell culture medium at 100,000 cells/mL in 500 µL cell culture medium in uncoated 12-well plates. The next day, dilutions of Cy5-labeled peptides were added to the cells and incubated for 72 h. Cell membranes of HMEC-1 and THP-1 cells were stained with 20 µg/mL Alexa Fluor 488-labeled concanavalin A (Invitrogen) for 20 min to enable identification of the cytosol. Nuclei were counterstained with Hoechst33342, and cells were washed with FluoroBriteTM DMEM (Gibco) + 25 mM HEPES (pH 7.4). After washing, THP-1 cells were transferred to poly-ᴅ-lysine-coated 8-well microscopy slides and allowed to sediment and adhere for 1 h. Confocal imaging and FCS were performed at 22 °C on a TCS SP8 FALCON microscope (Leica) with a Plan-Apochromat 40x/1,10 water immersion objective and HyD single molecule detector (Leica). The 638 nm laser line was used for excitation at 0.5% power and […]

HMEC-1 cells = assay: as above; settings: HMEC-1, applied concentration 1000 nM, 72 h; for cytosolic concentration, mean ± SD: FCS at 22 °C
Experimental: as §1, §2, §3

[1] = biological target: T1, NanoLuc-MDM2 in HEK293 cells (Homo sapiens, UniProt Q00987); assay: Intracellular Cy5-PMIγ/NanoLuc-MDM2 BRET, cells without CMKLR1; type: cell-based; settings: cells without CMKLR1, 72 h
T1 construct: host or cells: HEK293 and HEK293_CMKLR1-eYFP
T1 sequence (Q00987 whole entry): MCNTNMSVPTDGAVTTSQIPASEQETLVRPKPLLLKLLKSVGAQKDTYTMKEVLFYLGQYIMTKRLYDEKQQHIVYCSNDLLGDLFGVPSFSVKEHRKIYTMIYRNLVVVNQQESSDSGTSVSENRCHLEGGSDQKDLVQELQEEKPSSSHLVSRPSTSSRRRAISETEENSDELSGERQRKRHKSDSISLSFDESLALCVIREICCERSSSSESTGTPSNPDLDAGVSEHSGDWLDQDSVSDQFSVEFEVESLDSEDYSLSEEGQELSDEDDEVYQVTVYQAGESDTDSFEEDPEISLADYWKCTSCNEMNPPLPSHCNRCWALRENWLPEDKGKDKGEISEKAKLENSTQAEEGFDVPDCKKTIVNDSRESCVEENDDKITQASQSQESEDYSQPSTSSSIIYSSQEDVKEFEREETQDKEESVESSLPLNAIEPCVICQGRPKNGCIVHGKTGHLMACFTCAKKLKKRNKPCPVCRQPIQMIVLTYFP
Experimental: 4 Intracellular bioluminescence resonance energy transfer (BRET) between NanoLuc-MDM2 and Cy5-labeled PMIγ in living cells. (A) Peptides were incubated on HEK293 and HEK293_CMKLR1-eYFP cells for 72 h before BRET was measured. To evaluate the receptor-specific effect, ΔBRET was calculated by subtracting netBRET of cells without CMKLR from netBRET from cells with CMKLR1. Mean ± SEM from three independent experiments performed in duplicate. […] (B) Calculated ΔBRET values after different incubation times of peptides on the cells. (C, D) Same as panels (A) and (B), but peptide uptake was competed by coincubation with 30 μM peptide 1 (N3-cC9). […]
HEK293 and stably transfected HEK293_CMKLR1-eYFP cells were seeded at 15,000 cells per well into poly-ᴅ-lysine coated 96-well plates (white Nunc MicroWell, Thermo). […] After 10 min incubation, luminescence was measured in a Spark multimode plate reader (Tecan), and BRET ratio was calculated by […]
dividing the Cy5-signal (670±30 nm) by the NanoLuc signal (450±20 nm). netBRET was calculated by subtracting the BRET ratio from cells which were incubated without peptide. To calculate the CMKLR1-specific effect, ΔBRET was calculated by subtracting the netBRET value obtained in cells without CMKLR1 from netBRET obtained in cells with CMKLR1. After the initial readout, a kinetic BRET displacement was performed with the same cells. […]

[2] = applied concentration 10 nM, single cells, three independent experiments
[3] = applied concentration 1000 nM (1 μM)
[4] = applied concentration 10000 nM (10 μM)

| Compound | cytosolic concentration, median (IQR) (HEK293_CMKLR1-eYFP cells; applied concentration 10 nM) | cytosolic concentration, mean ± SD (HEK293_CMKLR1-eYFP cells; [2]) [nM] | cytosolic concentration, mean ± SD (HEK293_CMKLR1-eYFP cells; applied concentration 100 nM) [nM] | cytosolic concentration, median (IQR) (HEK293_CMKLR1-eYFP cells; applied concentration 100 nM) | cytosolic concentration, median (IQR) (HEK293_CMKLR1-eYFP cells; [3]) | cytosolic concentration, mean ± SD (HEK293_CMKLR1-eYFP cells; applied concentration 1000 nM) [nM] | cytosolic concentration, median (IQR) (HEK293_CMKLR1-eYFP cells; [4]) [nM] | cytosolic concentration, mean ± SD (HEK293_CMKLR1-eYFP cells; applied concentration 10000 nM) [nM] | cytosolic concentration, median (IQR) (HMEC-1 cells) | cytosolic concentration, mean ± SD (HMEC-1 cells) [nM] | BRET between NanoLuc-MDM2 and Cy5-labeled peptide [1] | cellular stress (HEK293_CMKLR1-eYFP cells; 10 μM, data not shown) |
| --- | --- | --- | --- | --- | --- | --- | --- | --- | --- | --- | --- | --- |
| CC(=O)N[C@@H](CCCCn1cc(C[C@H](NC(=O)CCOCCOCCOCCNC(=O)[C@H](CCCNC(N)=O)NC(=O)[C@@H](NC(=O)[C@H](CCC(=O)O)NC(=O)CNC(=O)CNC(=O)[C@@H](CCCNC(=N)N)NC(=O)[C@@H](CC(C)C)NC(=O)[C@@H](CC(C)C)NC(=O)[C@@H](C)NC(=O)[C@@H](CCC(=O)O)NC(=O)[C@@H](Cc2ccccc2)NC(=O)[C@@H](C)NC(=O)[C@@H](CC(C)C)NC(=O)[C@H]2CCCN2C(=O)[C@@H](Cc2c[nH]c3ccccc23)NC(=O)[C@@H](Cc2c[nH]c3ccccc23)NC(=O)[C@@H](CC(=O)O)NC(=O)CCOCCOCCOCCNC(=O)CCCCC[N+]2=C(/C=C/C=C/C=C3N(C)c4ccc(S(=O)(=O)O)cc4C3(C)C)C(C)(C)c3cc(S(=O)(=O)[O-])ccc32)C(C)C)C(N)=O)nn1)C(=O)N[C@@H](Cc1ccc(O)cc1)C(=O)N[C@@H](Cc1ccccc1)C(=O)N1CCC[C@H]1C(=O)N[C@@H]1CCSSC[C@@H](C(=O)O)NC(=O)[C@H](Cc2ccccc2)NC(=O)[C@H](C)NC(=O)[C@H](Cc2ccccc2)NC(=O)[C@H](CCC(N)=O)NC1=O [2Cy] (I: {X2-PEG3}-[dD][dW][dW][dP][dL][dA][dF][dE][dA][dL][dL][dR]GGEV[Cit][PEG3][Pra]-NH2 / II: Ac-[Lys(N3)]YFP[d(hCys)]QFAFC-OH; triazole I:19-II:1; disulfide II:5-II:10) | 6.2 (3.1–9.1) nM | 8.4 ± 7.8 | 11.6 ± 14.6 | 6.8 (3.3–13.0) nM | 43.1 (19.0–99.4) nM | 78.6 ± 83.2 | 106 | 161 ± 128 | 6.4 (3.7–9.3) nM | 7.8 ± 5.4 | only a minor signal | – |
| I: GSVSHHHHHHGGHHHH[PEG3][dK]([PEG3-X1])[dD][dW][dW][dP][dL][dA][dF][dE][dA][dL][dL][dR]GEV[Cit][PEG3][Pra]-NH2 / II: Ac-[Lys(N3)]YFP[d(hCys)]QFAFC-OH (triazole I:36-II:1; disulfide II:5-II:10) [3Cy] | 5.5 (3.2–9.5) nM | 6.6 ± 5.0 | 23.5 ± 40.2 | 10.2 (5.2–32.1) nM | 98.8 nM | 138 ± 122 | 228 | 308 ± 257 | 7.0 (5.2–12.4) nM | 20.1 ± 57.2 | strong BRET at 10 μM | showed signs of cellular stress |
